Assay results reported in patent publication US8119624B2, “Fused phenyl amido heterocyclic compounds” (Pfizer Inc., priority 2006, dated 2012).
Like-named read-outs stand apart in the source and are kept apart here.

Target: T1, Full-length glucokinase (beta cell isoform) (Homo sapiens, UniProt P35557)
T1 construct: Full-length glucokinase (beta cell isoform) was His-tagged at N-terminus; His tag (N); made in house
T1 sequence (P35557 1-465): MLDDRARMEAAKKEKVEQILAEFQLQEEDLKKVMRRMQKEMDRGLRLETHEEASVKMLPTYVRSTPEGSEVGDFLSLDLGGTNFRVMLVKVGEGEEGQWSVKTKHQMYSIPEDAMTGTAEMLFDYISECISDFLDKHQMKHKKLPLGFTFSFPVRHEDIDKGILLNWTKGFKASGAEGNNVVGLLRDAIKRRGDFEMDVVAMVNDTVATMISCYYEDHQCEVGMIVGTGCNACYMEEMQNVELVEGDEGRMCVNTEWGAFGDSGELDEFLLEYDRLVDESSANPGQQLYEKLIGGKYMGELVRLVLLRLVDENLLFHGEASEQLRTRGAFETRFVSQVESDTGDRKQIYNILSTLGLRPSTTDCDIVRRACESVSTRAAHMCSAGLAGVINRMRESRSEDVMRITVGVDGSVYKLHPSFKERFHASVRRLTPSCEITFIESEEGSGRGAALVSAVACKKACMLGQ
Assay: Glucokinase biochemical assay (PK/LDH-coupled, NADH depletion at 340 nm): % activation, EC50, % max activation
Conditions: 5 mM glucose; for EC50: read-out: EC50; for activation at 10 µM: read-out: % Activation at 10 uM; for Emax: read-out: % Max Activation
How it was run: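 Activation expressed as (Va/Vo−1)×100, where initial rates with and without compound come from NADH depletion at 340 nm over 200–900 s. Enzyme is His-tagged human beta-cell GK, full length, run at room temperature in HEPES buffer with 1 mM ATP and 5 mM glucose. DMSO 1%.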

[1] = compound at 10 uM, 1 mM ATP, room temperature
[2] = 10 uM compound, % Activation=(Va/Vo−1)×100

Cn1ccc(NC(=O)c2cc(Oc3ccc(C(=O)N4CC(F)C4)nc3)c3c(c2)OC(C)(C)C3)n1 [Example 397, 4-[6-(3-Fluoro-azetidine-1-carbonyl)-pyridin-3-yloxy]-2,2-dimethyl-2,3-dihydro-benzofuran-6-carboxylic acid(1-methyl-1H-pyrazol-3-yl)-amide]
EC50 (1 mM ATP, room temperature): 83 nM
activation at 10 µM [1]: 213%
Emax (fitted maximum activation, 1 mM ATP): 202%

Cc1cc2c(Oc3ccc(S(C)(=O)=O)cn3)cc(C(=O)Nc3cnn(C)n3)cc2o1 [Example 282, 2-Methyl-N-(2-methyl-2H-1,2,3-triazol-4-yl)-4-(5-(methylsulfonyl)pyridin-2-yloxy)benzofuran-6-carboxamide]
activation at 10 µM [2]: 140%
EC50 (GK activation): > 10000 nM

CC(Oc1cc(C(=O)Nc2ccn(C)n2)cc2c1CC(C)(C)O2)c1ccncn1 (stereo not shown) [Example 86, 2,2-Dimethyl-4-(1-pyrimidin-4-yl-ethoxy)-2,3-dihydro-benzofuran-6-carboxylic acid (1-methyl-1H-pyrazol-3-yl)-amide]
activation at 10 µM [2]: 124%
EC50 (GK activation): 4800 nM
Emax (fitted maximum activation): 159%

Cc1ccc(NC(=O)c2cc(Oc3ccc(C(=O)N4CCC4)c(F)c3)c3c(c2)OC(CO)C3)nc1 (stereo not shown) [Example 203, 4-[4-(Azetidine-1-carbonyl)-3-fluoro-phenoxy]-2-hydroxymethyl-2,3-dihydro-benzofuran-6-carboxylic acid (5-methyl-pyridin-2-yl)-amide]
activation at 10 µM [2]: 82.6%
EC50 (GK activation): 810 nM
Emax (fitted maximum activation): 91%

Cc1ccc(NC(=O)c2cc(OC(C)C)cc3oc(Br)cc23)nc1 [Example 345, 2-Bromo-6-isopropoxy-N-(5-methylpyridin-2-yl)benzofuran-4-carboxamide]
activation at 10 µM [2]: 75.6%
EC50 (GK activation): 4000 nM
Emax (fitted maximum activation): 116%

CC1Cc2c(cc(Oc3ccc(S(C)(=O)=O)cc3)cc2C(=O)Nc2ccccn2)O1 (stereo not shown) [Example 1, 6-(4-Methanesulfonyl-phenoxy)-2-methyl-2,3-dihydrobenzofuran-4-carboxylic acid pyridin-2-ylamide]
activation at 10 µM [2]: 101%
EC50 (GK activation): 8700 nM
Emax (fitted maximum activation): 144%

COCc1cc2c(Oc3ccc(S(C)(=O)=O)cc3)cc(C(=O)Nc3cc(C)on3)cc2o1 [Example 315, 2-(Methoxymethyl)-N-(5-methylisoxazol-3-yl)-4-[4-(methylsulfonyl)phenoxy]-1-benzofuran-6-carboxamide]
activation at 10 µM [2]: 11.9%

Cc1ccc(NC(=O)c2cc(Oc3ccc(S(C)(=O)=O)cc3)cc3c2CC(C)O3)nc1 (stereo not shown) [Example 2, 6-(4-Methanesulfonyl-phenoxy)-2-methyl-2,3-dihydrobenzofuran-4-carboxylic acid(5-methyl-pyridin-2-yl)-amide]
activation at 10 µM [2]: 113%
EC50 (GK activation): 5300 nM
Emax (fitted maximum activation): 152%

Cc1cc2c(Oc3ccc(S(=O)(=O)N4CCC4)cc3)cc(C(=O)Nc3cnn(C)n3)cc2o1 [Example 298, 4-(4-(Azetidin-1-ylsulfonyl)phenoxy)-2-methyl-N-(2-methyl-2H-1,2,3-triazol-4-yl)benzofuran-6-carboxamide]
activation at 10 µM [2]: 113%
EC50 (GK activation): 210 nM
Emax (fitted maximum activation): 132%

Cn1ccc(NC(=O)c2cc(Oc3ccc(C(=O)N4CCCC4)cc3)c3c(c2)OC(C)(C)C3)n1 [Example 48, 2,2-Dimethyl-4-[4-(pyrrolidine-1-carbonyl)-phenoxy]-2,3-dihydro-benzofuran-6-carboxylic acid(1-methyl-1H-pyrazol-3-yl)-amide]
activation at 10 µM [2]: 130%
EC50 (GK activation): 142 nM
Emax (fitted maximum activation): 114%

CCS(=O)(=O)c1ccc(Oc2cc(C(=O)Nc3cnn(C)n3)cc3c2CC(C)(C)O3)cc1F [Example 135, 4-(4-Ethanesulfonyl-3-fluoro-phenoxy)-2,2-dimethyl-2,3-dihydro-benzofuran-6-carboxylic acid (2-methyl-2H-[1,2,3]triazol-4-yl)-amide]
activation at 10 µM [2]: 239%
EC50 (GK activation): 97 nM
Emax (fitted maximum activation): 257%

CC1Cc2c(Oc3ccc(S(C)(=O)=O)cc3)cc(C(=O)Nc3ccn(C)n3)cc2O1 (single isomer, unassigned; (+)) [Example 13, (+)4-(4-Methanesulfonyl-phenoxy)-2-methyl-2,3-dihydro-benzofuran-6-carboxylic acid(1-methyl-1H-pyrazol-3-yl)-amide]
% Activation at 10 uM [2]: 182%
EC50 (GK activation): 1800 nM
% Max Activation (fitted maximum activation): 196%

COc1cnc(NC(=O)c2cc(Oc3ccc(S(C)(=O)=O)cn3)c3cc(C)oc3c2)cn1 [Example 284, N-(5-Methoxypyrazin-2-yl)-2-methyl-4-(5-(methylsulfonyl)-pyridin-2-yloxy)-benzofuran-6-carboxamide]
activation at 10 µM [2]: 86.1%
EC50 (GK activation): 5500 nM
Emax (fitted maximum activation): 218%

Cc1cc2c(Oc3ccc(S(C)(=O)=O)cc3)cc(C(=O)Nc3ccc(C#N)cn3)cc2o1 [Example 261, N-(5-cyanopyridin-2-yl)-2-methyl-4-(4-(methylsulfonyl)-phenoxy)benzofuran-6-carboxamide]
activation at 10 µM [2]: 58.8%
EC50 (GK activation): 7900 nM
Emax (fitted maximum activation): 81%

Cn1ccc(NC(=O)c2cc(Oc3ccc(S(C)(=O)=O)cc3)c3ccoc3c2)n1 [Example 343]
activation at 10 µM [2]: 82.5%
EC50 (GK activation): > 10000 nM

CN1CCN(C(=O)c2ccc(Oc3cc(C(=O)Nc4ccn(C)n4)cc4c3CC(C)(C)O4)c(F)c2)CC1 [Example 42, 4-[2-Fluoro-4-(4-methyl-piperazine-1-carbonyl)-phenoxy]-2,2-dimethyl-2,3-dihydro-benzofuran-6-carboxylic acid(1-methyl-1H-pyrazol-3-yl)-amide]
activation at 10 µM [2]: 128%
EC50 (GK activation): 2300 nM
Emax (fitted maximum activation): 139%

Cc1nc2cc(C(=O)Nc3ccn(C)n3)cc(Oc3ccc(S(C)(=O)=O)cc3)c2o1 [Example 368, 2-Methyl-N-(1-methyl-1H-pyrazol-3-yl)-7-[4-(methylsulfonyl)-phenoxy]-1,3-benzoxazole-5-carboxamide]
activation at 10 µM [2]: 48.2%
EC50 (GK activation): > 10000 nM

Cc1ccc(NC(=O)c2cc(OCc3ccccc3)c3c(c2)C(=O)N(C2CC2)C3)nc1 [Example 378, 7-(Benzyloxy)-2-cyclopropyl-N-(5-methylpyridin-2-yl)-3-oxoisoindoline-5-carboxamide]
activation at 10 µM [1]: -1.85%

Cn1ccc(NC(=O)c2cc(Oc3ccc(S(C)(=O)=O)cc3)c3occc3c2)n1 [Example 332, N-(1-Methyl-1H-pyrazol-3-yl)-7-[4-(methylsulfonyl)phenoxy]-1-benzofuran-5-carboxamide]
activation at 10 µM [2]: 57.5%
EC50 (GK activation): > 10000 nM

Cc1ccc(NC(=O)c2cc(Oc3ccc(C(=O)N(C)C)c(F)c3)c3cc(C)sc3c2)nc1 [Example 361, 4-(4-(Dimethylcarbamoyl)-3-fluorophenoxy)-2-methyl-N-(5-methylpyridin-2-yl)benzo[b]thiophene-6-carboxamide]
activation at 10 µM [2]: 4.2%

Cc1cc2c(Oc3ccc(S(C)(=O)=O)cc3)cc(C(=O)Nc3ccc(F)cn3)cc2o1 [Example 256, N-(5-Fluoropyridin-2-yl)-2-methyl-4-(4-(methylsulfonyl)-phenoxy)benzofuran-6-carboxamide]
activation at 10 µM [2]: 89.2%
EC50 (GK activation): 4500 nM
Emax (fitted maximum activation): 126%

Cc1csc2cc(C(=O)Nc3ccn(C)n3)cc(O[C@@H](C)Cc3ccccc3)c12 [Example 354, 3-Methyl-4-[(1S)-1-methyl-2-phenylethoxy]-N-(1-methyl-1H-pyrazol-3-yl)-1-benzothiophene-6-carboxamide]
activation at 10 µM [2]: 3.5%

Cn1ccc(NC(=O)c2cc(Oc3ccc(C(=O)N4CC[C@@H](F)C4)c(F)c3)c3c(c2)OC(C)(C)C3)n1 [Example 58, 4-[3-Fluoro-4-((R)-3-fluoro-pyrrolidine-1-carbonyl)-phenoxy]-2,2-dimethyl-2,3-dihydro-benzofuran-6-carboxylic acid(1-methyl-1H-pyrazol-3-yl)-amide]
activation at 10 µM [2]: 55.3%
EC50 (GK activation): 75 nM
Emax (fitted maximum activation): 88%

Cc1ccc(NC(=O)c2cc(OCc3ccccc3Cl)cc3c2CCC(C)(C)O3)nc1 [Example 375, 7-(2-Chloro-benzyloxy)-2,2-dimethyl-chroman-5-carboxylic acid(5-methyl-pyridin-2-yl)-amide]
% Activation at 10 uM [2]: 5.6%

CC(C)COc1cc(C(=O)Nc2ccc(C(=O)O)cn2)cc2c1CC(C)(C)O2 [Example 14, 6-[(4-Isobutoxy-2,2-dimethyl-2,3-dihydro-benzofuran-6-carbonyl)-amino]-nicotinic acid]
activation at 10 µM [2]: 167%
EC50 (GK activation): 1300 nM
Emax (fitted maximum activation): 115%

Cn1ccc(NC(=O)c2cc(Oc3ccc(C#N)cc3F)c3c(c2)OC(C)(C)C3)n1 [Example 31, 4-(4-Cyano-2-fluoro-phenoxy)-2,2-dimethyl-2,3-dihydro-benzofuran-6-carbo-xylic acid(1-methyl-1H-pyrazol-3-yl)-amide]
activation at 10 µM [2]: 135%
EC50 (GK activation): 2100 nM
Emax (fitted maximum activation): 153%
